Consider four molecules from US8563505B2, “Hepatitis C virus inhibitors” (priority 2008, dated 2013).

The target in experiment [1] is T1, HCV NS3/4A protease complex (Hepatitis C virus genotype 1a, UniProt P27958, C1454S/C1711G).
T1 construct: DNA encoding the recombinant HCV NS3/4A protease complex (amino acids 1027 to 1711) for these strains; inferred from pET21b vector and Ni-NTA purification) (C); made in house; host or cells: Escherichia coli BL21 (DE3), pET21b
Nature of the experiment: FRET peptide assay to monitor HCV NS3/4A proteolytic activity. Particulars: NS3/4A strain not stated. It is filed as biochemical. The text has this:
HCV NS3 protease complexes, derived from the BMS strain, H77 strain or J4L6S strain, were generated, as described below. These purified recombinant proteins were generated for use in a homogeneous assay (see below) to provide an indication of how effective compounds of the present disclosure would be in inhibiting HCV NS3 proteolytic activity.
The H77 and J4L6S strains were used for production of recombinant NS3/4A protease complexes. DNA encoding the recombinant HCV NS3/4A protease complex (amino acids 1027 to 1711) for these strains was manipulated as described by P. Gallinari et al. (see Gallinari P, Paolini C, Brennan D, Nardi C, Steinkuhler C, De Francesco R. Biochemistry. 38(17):5620-32, (1999)). Briefly, a three-lysine solubilizing tail was added at the 3′-end of the NS4A coding region. The cysteine in the P1 position of the NS4A-NS4B cleavage site (amino acid 1711) was changed to a glycine to avoid the proteolytic cleavage of the lysine tag. Furthermore, a cysteine to serine mutation was introduced by PCR at amino acid position 1454 to prevent the autolytic cleavage in the NS3 helicase domain. The variant DNA fragment was cloned in the pET21b bacterial expression vector (Novagen) and the NS3/4A complex was expressed in Escherichia coli strain BL21 (DE3) (Invitrogen) following the protocol described by P. Gallinari et al. (see Gallinari P, Brennan D, Nardi C, Brunetti M, Tomei L, Steinkuhler C, De Francesco R., J Virol. 72(8):6758-69 (1998)) with modifications. Briefly, the NS3/4A protease complex expression was induced with 0.5 millimolar (mM) Isopropyl β-D-1-thiogalactopyranoside (IPTG) for 22 hours (h) at 20° C. A typical fermentation (1 Liter (L)) yielded approximately 10 grams (g) of wet cell paste. The cells were resuspended in lysis buffer (10 mL/g) consisting of 25 mM N-(2-Hydroxyethyl)Piperazine-N′-(2-Ethane Sulfonic acid) (HEPES), pH 7.5, 20% glycerol, 500 mM Sodium Chloride (NaCl), 0.5% Triton X-100, 1 microgram/milliliter ([…]) lysozyme, 5 mM Magnesium Chloride (MgCl2), 1 μg/ml DnaseI, 5 mM […] (βME), Protease inhibitor-Ethylenediamine Tetraacetic acid (EDTA) free (Roche), homogenized and incubated for 20 minutes (min) at 4° C. The homogenate was sonicated and clarified by ultra-centrifugation at 235000 g for 1 hour (h) at 4° C. Imidazole was added to the supernatant to a final concentration of 15 mM and the pH adjusted to 8.0. The crude protein extract was loaded on a Nickel-Nitrilotriacetic acid (Ni-NTA) column pre-equilibrated with buffer B (25 mM HEPES, pH 8.0, 20% glycerol, 500 mM NaCl, 0.5% Triton X-100, 15 mM imidazole, 5 mM βME). The sample was loaded at a flow rate of 1 mL/min. The column was washed with 15 column volumes of buffer C (same as buffer B except with 0.2% Triton X-100). The protein was eluted with 5 column volumes of buffer D (same as buffer C except with 200 mM Imidazole).
NS3/4A protease complex-containing fractions were pooled and loaded on a desalting column Superdex-S200 pre-equilibrated with buffer D (25 mM HEPES, pH 7.5, 20% glycerol, 300 mM NaCl, 0.2% Triton X-100, 10 mM (βME). Sample was loaded at a flow rate of 1 mL/min. NS3/4A protease complex-containing fractions were pooled and concentrated to approximately 0.5 mg/ml. The purity of the NS3/4A protease complexes, derived from the BMS, H77 and J4L6S strains, were judged to be greater than 90% by SDS-PAGE and mass spectrometry analyses. The enzyme was stored at −80° C., thawed on ice and diluted prior to use in assay buffer.
The purpose of this in vitro assay was to measure the inhibition of HCV NS3 protease complexes, derived from the BMS strain, H77 strain or J4L6S strain, as described above, by compounds of the present disclosure. This assay provides an indication of how effective compounds of the present disclosure would be in inhibiting HCV NS3 proteolytic activity.
In order to monitor HCV NS3/4A protease activity, an NS3/4A peptide substrate was used. […]

In experiment [2] the test system is HCV replicon in HUH-7 cells. The experiment in a line: HCV replicon assay (FRET, confirmed by luciferase reporter). It is filed as cell-based, Hepatitis C virus (strain 1b). Particulars: Hepatitis C virus, 96 h, HUH-7 replicon cells, 4 days. The source says: An HCV replicon whole cell system was established as described by Lohmann V, Korner F, Koch J, Herian U, Theilmann L, Bartenschlager R., Science 285(5424):110-3 (1999). This system enabled us to evaluate the effects of our HCV Protease compounds on HCV RNA replication. Briefly, using the HCV strain 1b sequence described in the Lohmann paper (Assession number: AJ238799), an HCV cDNA was synthesized by Operon Technologies, Inc. (Alameda, Calif.), and the full-length replicon was then assembled in plasmid pGem9zf(+) (Promega, Madison, Wis.) using standard molecular biology techniques. The replicon consists of (i) the HCV 5′ UTR fused to the first 12 amino acids of the capsid protein, (ii) the neomycin phosphotransferase gene (neo), (iii) the IRES from encephalomyocarditis virus (EMCV), and (iv) HCV NS3 to NS5B genes and the HCV 3′ UTR. Plasmid DNAs were linearized with Seal and RNA transcripts were synthesized in vitro using the T7 MegaScript transcription kit (Ambion, Austin, Tex.) according to manufacturer's directions. In vitro transcripts of the cDNA were transfected into the human hepatoma cell line, HUH-7. […] Resulting cell lines were characterized for positive and negative strand RNA production and protein production over time.
The HCV replicon FRET assay was developed to monitor the inhibitory effects of compounds described in the disclosure on HCV viral replication. HUH-7 cells, constitutively expressing the HCV replicon, were grown in Dulbecco's Modified Eagle Media (DMEM) (Gibco-BRL) containing 10% Fetal calf serum (FCS) (Sigma) and 1 mg/ml G418 (Gibco-BRL). Cells were seeded the night before (1.5×10^4 cells/well) in 96-well tissue-culture sterile plates. Compound and no compound controls were prepared in DMEM containing 4% FCS, 1:100 Penicillin/Streptomysin (Gibco-BRL), 1:100 L-glutamine and 5% DMSO in the dilution plate (0.5% DMSO final concentration in the assay). Compound/DMSO mixes were added to the cells and incubated for 4 days at 37° C. After 4 days, cells were first assessed for cytotoxicity using alamar Blue (Trek Diagnostic Systems) for a CC50 reading. The toxicity of compound (CC50) was determined by adding 1/10th volume of alamar Blue to the media incubating the cells. After 4 h, the fluorescence signal from each well was read, with an excitation wavelength at 530 nm and an emission wavelength of 580 nm, using the Cytofluor Series 4000 (Perspective Biosystems). Plates were then rinsed thoroughly with Phosphate-Buffered Saline (PBS) (3 times 150 μl).
As a secondary assay, EC50 determinations from the replicon FRET assay were confirmed in a replicon luciferase reporter assay. Utilization of a replicon luciferase reporter assay was first described by Krieger et al (Krieger N, Lohmann V, and Bartenschlager R, J. Viral. 75(10):4614-4624 (2001)). The replicon construct described for our FRET assay was modified by inserting cDNA encoding a humanized form of the Renilla luciferase gene and a linker sequence fused directly to the 3′-end of the luciferase gene. This insert was introduced into the replicon construct using an Asc1 restriction site located in core, directly upstream of the neomycin marker gene. The adaptive mutation at position 1179 (serine to isoleucine) was also introduced (Blight K J, Kolykhalov, A A, Rice, C M, Science 290(5498):1972-1974). A stable cell line constitutively expressing this HCV replicon construct was generated as described above. The luciferase reporter assay was set up as described for the HCV replicon FRET assay with the following modifications. Following 4 days in a 37° C./5% CO2 incubator, cells were analyzed for Renilla Luciferase activity using the Promega Dual-Glo Luciferase Assay System. Media (100 μl) was removed from each well containing cells. To the remaining 50 μl of media, 50 μl of Dual-Glo Luciferase Reagent was added, and plates rocked for 10 min to 2 h at room temperature. […]
A general note: In antiviral work, replicon cells carry a viral genome segment that copies itself.

T1 sequence (P27958 1027-1711 C1454S/C1711G, one chain of several): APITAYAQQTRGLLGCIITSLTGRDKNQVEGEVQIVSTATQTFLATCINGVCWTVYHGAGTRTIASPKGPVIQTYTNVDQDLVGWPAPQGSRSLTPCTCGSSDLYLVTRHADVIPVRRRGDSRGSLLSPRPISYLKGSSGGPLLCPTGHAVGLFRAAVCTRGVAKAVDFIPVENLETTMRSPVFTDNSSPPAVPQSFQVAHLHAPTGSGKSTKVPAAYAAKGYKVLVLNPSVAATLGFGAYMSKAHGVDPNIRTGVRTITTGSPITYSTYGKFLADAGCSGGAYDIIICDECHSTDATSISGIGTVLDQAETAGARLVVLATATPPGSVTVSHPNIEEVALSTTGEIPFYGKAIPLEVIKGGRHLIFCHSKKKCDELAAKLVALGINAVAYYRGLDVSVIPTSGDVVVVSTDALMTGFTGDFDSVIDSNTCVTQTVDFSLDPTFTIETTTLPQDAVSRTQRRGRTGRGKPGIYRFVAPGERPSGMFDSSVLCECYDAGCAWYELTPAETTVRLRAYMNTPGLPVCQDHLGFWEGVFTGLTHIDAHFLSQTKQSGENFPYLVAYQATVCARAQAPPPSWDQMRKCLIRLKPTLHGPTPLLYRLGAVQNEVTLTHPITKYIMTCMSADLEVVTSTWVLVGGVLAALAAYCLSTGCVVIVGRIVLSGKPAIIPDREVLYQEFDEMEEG

As for `CO[C@@]12C[C@@H](C(=O)N[C@]3(C(=O)NS(=O)(=O)C4CC4)C[C@H]3C3CC3)N(C1)C(=O)[C@H](C(C)(C)C)NC(=O)OCC(C)(C)CCCCc1ccccc1-c1ccc2cc1` [Example 5], in experiment [1] (class symbols), the IC50 lay in the range of 0.004 to 0.007 µM. This molecule registered an EC50 in experiment [2] (class symbols) of 0.011 to 0.02 µM.

Regarding `C=C[C@@H]1C[C@]1(NC(=O)[C@@H]1C[C@]2(OC)CN1C(=O)[C@H](C(C)(C)C)NC(=O)OCCCCc1cc2ccc1-c1ccccc1)C(=O)NS(=O)(=O)C1CC1` [Example 8], the IC50 in experiment [1] (class symbols) is 0.008 to 0.011 µM. This molecule displayed a concentration for a half-maximal effect (EC50) in experiment [2] (class symbols) of 0.021 to 0.03 µM.

Take `C=C[C@@H]1C[C@]1(NC(=O)[C@@H]1C[C@]2(OC)CN1C(=O)[C@H](C(C)(C)C)NC(=O)OCCCCCc1cc2ccc1-c1ccccc1)C(=O)NS(=O)(=O)C1CC1` [Example 9]: the half-maximal inhibitory concentration (IC50) in experiment [1] (numeric values) stood at 0.004 µM. Also, a half-maximal response in experiment [2] (numeric values) (EC50) required 0.026 µM.

As for `CO[C@@]12C[C@@H](C(=O)N[C@]3(C(=O)NS(=O)(=O)C4CC4)C[C@H]3C3CC3)N(C1)C(=O)[C@H](C(C)(C)C)NC(=O)OCCC(C)(C)CCCc1ccccc1-c1ccc2cc1` [Example 3], in experiment [1] (class symbols), the IC50 fell in the range of 0.004 to 0.007 µM. Besides, the EC50 in experiment [2] (class symbols) lay within 0.021 to 0.03 µM.

A word on the IC50: it is the concentration that inhibits the measured activity by half. Broadly, the EC50 is the concentration that produces a half-maximal response. Lower therefore signals greater potency.
